The values that follow come from patent publication US20130288991A1, “BLOCK COPOLYMERS FOR STABLE MICELLES” (Intezyne Technologies, Inc., priority 2012, published 2013).

pIC50: −log10 of the molar value.

Data set [1] is described as follows: in vivo. Details: species or system Fisher rats. As to conditions: Fisher, rat, iv, 10 mg/kg. As to the method: The delivery vehicle for drug administration was isotonic saline. […] Samples were analyzed on a Waters Alliance 2695 equiped with a 2475 fluorescence detector (Ex=470 nm; Em=580). A 5 μL sample injection was made onto a Waters 4 μm Nova Pak C18 (3.9×150 mm) at 30° C. with a flow rate of 0.750 mL per minute of 10 mM phosphate buffer (pH=1.4), methanol and acetonitrile (gradient from 70/10/20 to 40/10/50 for buffer/methanol/acetonitrile was made over eight minutes). Analyte eluted at 5.9 minutes under these conditions, was normalized to the internal standard, and quantitated using a standard curve comprised of seven standards.

In another data set the test system is A549 lung cancer cells. Nature of the data set: In-vitro cytotoxicity of aminopterin formulations (cell titer-glo). The conditions noted are these: read-out: IC50 (cell viability inhibited by 50%); A549, 72 hours. In kind it is cell-based. As to the method: (§1) Cells originally purchased from ATCC (A549, Panc-1, OVCAR3, and BXPC-3) were seeded in 96 well tissue culture plates to be 50% confluent by 24 hours. Cells were incubated at 37° C. with 5.0% CO2. Cells were treated with escalading doses of free aminopterin, crosslinked aminopterin formulation, uncrosslinked aminopterin formulation, and non drug-loaded micelle formulations 24 hours after plate seeding. Free aminopterin was dissolved in DMSO and administered to cells with a total volume of DMSO equal to or less than 0.0025%. Micelle formulations were re-suspended in biology grade water. Dilutions were done in deep well plates with cell media and water or DMSO (for free aminopterin only) equalizing displaced volume. Incubation media was aspirated from the 96 well plates and 100 μl of each dilution was added to the wells in triplicate and incubated over 72 hours at 37° C. with 5.0% CO2. Crosslinked and uncrosslinked non drug-loaded micelle formulations were administered at the four highest doses and were calculated at comparative mg/ml concentrations to drug-loaded micelle concentrations of delivery vehicle. After 72-hour incubation, plates were allowed to cool to room temperature and 25 μl of cell titer-glo was added to each well. Plates were briefly shaken to mix and luminescence readings were read on a plate reader. Luminescence reading for triplicate doses are averaged and divided by average luminescence readings from untreated cells on the same plate to calculate the % of viable cells per dose.
(§2) The aminopterin loaded micelles from Example 119 and Example 121 were tested for cytotoxicity compared to free aminopterin and the crosslinked and uncrosslinked non drug-loaded micelle formulations (from polymer of Example 18) against A549 lung, OVCAR3 ovarian, PANC-1 (folate receptor +) pancreatic and BxPC3 (folate receptor −) pancreatic cancer cell lines. The cytotoxicity profiles for each treatment for each cell line in FIG. 14 (A549 Lung), FIG. 15 (OVCAR3 Ovarian), FIG. 16 (PANC-1 Pancreatic), and FIG. 17 (BxPC3 pancreatic). […] Treatment with both uncrosslinked and crosslinked non drug-loaded micelles was well tolerated, with greater than 80% viability for all cells tested.

The subject of data set [2] is BxPC3 pancreatic (folate receptor −) cancer cells. The data set is described as above. Format: cell-based. As to conditions: BxPC3, 72 hours. As to the method: as §1, §2
In data set [3] the test system is OVCAR3 ovarian cancer cells. Described as above. In kind it is cell-based. As to conditions: OVCAR3, 72 hours. As to the method:
as §1, §2

Data set [4] deals with PANC-1 pancreatic (folate receptor +) cancer cells. The data set is described as above. In kind it is cell-based. As to conditions: read-out: IC50 (cell viability inhibited by 50%); PANC-1, 72 hours. As to the method: as §1, §2
Data set [5] concerns HCT-116 colon cancer cells. Nature of the data set: Anti-tumor efficacy of SN-38 micelles in HCT-116 xenograft model. The conditions noted are these: irinotecan at 50 mg/kg, IV 3×QW. In kind it is in vivo, mice.
For data set [6] the following is noted: Fisher, rat, in vivo, iv, 5 mg/kg.
Data set [7] is described as follows: in vivo. As to conditions: Fisher, rat, iv, 5 mg/kg.

Turning to `COc1cccc2c1C(=O)c1c(O)c3c(c(O)c1C2=O)C[C@@](O)(C(C)=O)C[C@@H]3O[C@H]1C[C@H](N)[C@H](O)[C@H](C)O1` [free daunorubicin, daunorubicin], in “in vivo [1]”, the exposure (AUC) amounted to 1300 ng·h/mL; the maximum concentration (Cmax) was found to be 3300 ng/mL; the “Half-life (terminal, elimination)” value was found to be 3.3 h. Also, in “in vivo [1]” (Half-life (terminal, elimination)), the half-life is 3.4 h.

`Nc1nc(N)c2nc(CNc3ccc(C(=O)N[C@@H](CCC(=O)O)C(=O)O)cc3)cnc2n1` [Aminopterin, aminopterin]: the pIC50 (in the data set with A549 lung cancer cells; in data set [4]) was 7.60 to 8.15 throughout. Moreover, the “IC50 (cell viability inhibited by 50%)” value in data set [2] and in data set [3] was “no IC50 was obtained” each time.

Take `CCc1c2c(nc3ccc(OC(=O)N4CCC(N5CCCCC5)CC4)cc13)-c1cc3c(c(=O)n1C2)COC(=O)[C@]3(O)CC` [irinotecan]: in data set [5], the “Mean tumor growth rate” value is given as 18.9 mm^3 per day.

As for `CO[C@H]1C(=O)[C@]2(C)[C@@H](OC)C[C@H]3OC[C@@]3(OC(C)=O)[C@H]2[C@H](OC(=O)c2ccccc2)[C@]2(O)C[C@H](OC(=O)[C@H](O)[C@@H](NC(=O)OC(C)(C)C)c3ccccc3)C(C)=C1C2(C)C` [free cabizataxel, cabazitaxel], in data set [6], the “Exposure of cabazitaxel to the plasma compartment over 15 minutes” value came out at 200 ng·h/mL. Further, the Cmax in the data set “in vivo [7]” came to 1200 ng/mL.
